Measured values taken from patent US7109193B2, “Tricyclic diazepines tocolytic oxytocin receptor antagonists” (Wyeth, priority 2001, dated 2006).

What follows are compounds tested against T1, human vasopressin V1a receptor subtype (Homo sapiens, UniProt P37288) (assay: Vasopressin binding in Chinese Hamster Ovary cell membranes expressing human vasopressin V1a subtype receptors). Conditions: 100 nM, CHO cell membranes, [3H]Manning ligand, values without parentheses.
T1 construct: host or cells: CHO cells (pZeoSV vector for the Thibonnier line)
T1 sequence (P37288 whole entry): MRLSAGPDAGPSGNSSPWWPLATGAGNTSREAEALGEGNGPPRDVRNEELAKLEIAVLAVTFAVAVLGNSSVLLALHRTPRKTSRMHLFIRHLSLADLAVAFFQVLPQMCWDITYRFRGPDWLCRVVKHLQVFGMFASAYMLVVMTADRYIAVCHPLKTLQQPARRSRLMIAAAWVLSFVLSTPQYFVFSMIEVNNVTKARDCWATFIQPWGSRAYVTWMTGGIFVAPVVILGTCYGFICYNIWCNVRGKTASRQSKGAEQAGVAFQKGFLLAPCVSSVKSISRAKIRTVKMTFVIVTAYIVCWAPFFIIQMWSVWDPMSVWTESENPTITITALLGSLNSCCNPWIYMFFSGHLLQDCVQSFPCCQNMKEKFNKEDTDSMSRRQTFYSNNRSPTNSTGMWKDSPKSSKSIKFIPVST
Method: Vasopressin Binding in Chinese Hamster Ovary Cell Membranes Expressing Human Vasopressin V1a Subtype Receptors
The trypsin is removed by aspiration and the cells dislodged by tapping. Cell Culture medium (e.g. 30 mL for 1:30 split) is immediately added and mixed well to inactivate trypsin. 1 mL of detached cells is added to new culture flasks containing fresh cell culture medium (e.g., into 25 mL per T-150 flask), and mixed gently. The cells are incubated at 37° C. in 5% CO2. The medium is changed at 3 to 4 days interval (or as appropriate). […] All steps are done under sterile conditions. B. Membrane Preparation: The cells are washed twice gently with Hank's Balanced Salt solution (e.g,. use 10 mL per T-150 flask). […] The contents are transferred to centrifuge tubes (50 mL) kept in an ice bath. All subsequent steps are done at 4° C. The tubes are centrifuged at 300×g for 15 min (1380 rpm on SORVAL, Model RT6000D, using the rotor for 50 mL tubes). The supernatant is discarded and the cells suspended in homogenizing buffer(10 mM Tris-HCl containing 0.25 M sucrose and 1 mM EDTA, pH 7.4) ensuring that the volume of the buffer is about ten times the volume of the cell pellet. The cells are pooled into a centrifuge tube (50 mL) and homogenized with a Polytron at setting 6 for 10 sec. The homogenate is transferred into a Potter-Elvjehm homogenizer and homogenized with 3 strokes. The homogenate is centrifuged at 1500×g for 10 min at 4° C. (3100 rpm using SORVAL, model RT6000D, using the rotor for 50 mL tubes). The pellet is discarded. The supernatant is centrifuged at 100,000×g for 60 min. at 4° C. (Beckman L8-80M ultracentrifuge; spin at 37,500 rpm with rotor type 70 Ti for 50 mL tubes; 38,000 rpm with type 80Ti for 15 mL tubes; or 35,800 rpm with rotor type 45Ti). The supernantant is discarded and the pellet suspended in 3 to 4 mL of Tris buffer (50 mM TRIS-HCl, pH 7.4). The protein content is estimated by the Bradford or Lowry method. The volume of the membrane suspension is adjusted with the membrane buffer (50 mM Tris-HCl containing 0.1% BSA and 0.1 mM PMSF) to give 3.0 mg/mL (or as appropriate) of protein. The membranes are aliquoted and stored at −70° C. C. Radioligand Binding Assay: In wells of a 96-well format microtiter plate, is added 90, 110 or 130 μL (to make up a final volume of 200 μL) of assay buffer containing 50 mM of Tris-HCl (pH 7.4), BSA (heat inactivated, protease-free), […], 1 mg % aprotinin, 1 mg % leupeptin, 2 mg % 1,10-phenanthroline, 10 mg % trypsin inhibitor, and 0.1 mM PMSF. The inhibitors are added on the day of the experiment. The components are mixed at room temperature, and then kept in ice bath following adjustment of the pH to 7.4. […] 20 μL of 50% DMSO is added for Manning and other peptide ligands and the assay buffer volume is adjusted accordingly. To each well is added 50 μL of frozen membrane suspension thawed immediately prior to use and diluted in the assay buffer to the required concentration (equivalent to 25 to 50 μg of protein/well as needed). 20 μL of 8 nM [^3H]Manning ligand in the assay buffer, prepared just before use, is added, and incubated at room temperature for 60 min. shaking the plate on a mechanical shaker for the first 15 min. The incubation is stopped by rapid filtration of the plate contents followed by wash with ice-cold buffer (50 mM Tris-HCl, pH 7.4) using a cell harvester (Tomtek and Printed filtermat-B filter paper). The filter paper is thoroughly dried (7–12 min. in a microwave oven) and impregnated with MeltiLex B/H melt-on scintillation wax sheets and the radioactivity counted in a betaplate scintillation counter.
Binding data is either reported as percent inhibition at a certain concentration or if an IC50 was calculated, as a nanomolar concentration.
With `COc1cccc(-c2ccc(C(=O)N3Cc4ccc(C(=O)N5CCC(N6CCCCC6)CC5)n4Cc4ccccc43)cc2OC)c1` [Example 120, {10-[(2,3′-Dimethoxy-[1,1′-biphenyl]-4-yl)carbonyl]-10,11-dihydro-5H-pyrrolo[2,1-c][1,4]benzodiazepin-3-yl}[4-(1-piperidinyl)-1-piperidinyl]methanone] the inhibition at 0.1 µM was 20%.
`O=C(c1ccc2n1Cc1ccccc1N(C(=O)c1ccc(-c3cccc4ccccc34)cc1Cl)C2)N1CCC(N2CCCCC2)CC1` [Example 121] was tested, and the “V1a % inhibition @ 100 nM” value was 0%.
With `Cc1cc(C(=O)N2Cc3ccc(C(=O)N4CCC(N5CCCCC5)CC4)n3Cc3ccccc32)ccc1-c1ccccc1C(F)(F)F` [Example 122, {10-[(2-Methyl-2′-(trifluoromethyl) -[1,1′-biphenyl]-4-yl)carbonyl]-10,11-dihydro-5H -pyrrolo[2,1-c][1,4]benzodiazepin-3-yl}[4-(1-piperidinyl)-1-piperidinyl]methanone] the inhibition at 0.1 µM was 8%.
In the case of `COc1ccccc1-c1ccc(C(=O)N2Cc3ccc(C(=O)NCCCn4ccnc4)n3Cc3ccccc32)cc1C` [Example 123, N-[3-(1H-Imidazol-1-yl)propyl]-10-[(2′-methoxy-2-methyl[1,1′-biphenyl]-4-yl)carbonyl]-10,11-dihydro-5H-pyrrolo[2,1-c][1,4]benzodiazepine-3-carboxamide], the inhibition at 0.1 µM was 9%.
With `Cc1ccccc1-c1ccc(C(=O)N2Cc3ccc(C(=O)NCCCn4ccnc4)n3Cc3ccccc32)cc1C` [Example 124, 10-[(2,2′-Dimethyl[1,1′-biphenyl]-4-yl)carbonyl]-N-[3-(1H-imidazol-1-yl)propyl]-10,11-dihydro-5H-pyrrolo[2,1-c][1,4]benzodiazepine-3-carboxamide] the inhibition at 0.1 µM was 16%.
For `COc1cccc(-c2ccc(C(=O)N3Cc4ccc(C(=O)NCCCn5ccnc5)n4Cc4ccccc43)cc2C)c1` [Example 125, N-[3-(1H-Imidazol-1-yl)propyl]-10-[(3′-methoxy-2-methyl[1,1′-biphenyl]-4-yl)carbonyl]-10,11-dihydro-5H-pyrrolo[2,1-c][1,4]benzodiazepine-3-carboxamide], the inhibition at 0.1 µM was 10%.
For `COc1ccccc1-c1ccc(C(=O)N2Cc3ccc(C(=O)NCCCn4ccnc4)n3Cc3ccccc32)cc1` [Example 126, N-[3-(1H-Imidazol-1-yl)propyl]-10-[(2′-methoxy[1,1′-biphenyl]-4-yl)carbonyl]-10,11-dihydro-5H-pyrrolo[2,1-c][1,4]benzodiazepine-3-carboxamide], the inhibition at 0.1 µM was 9%.
`Cc1ccccc1-c1ccc(C(=O)N2Cc3ccc(C(=O)NCCCn4ccnc4)n3Cc3ccccc32)cc1` [Example 127, N-[3-(1H-Imidazol-1-yl)propyl]-10-[(2′-methyl[1,1′-biphenyl]-4-yl)carbonyl]-10,11-dihydro-5H-pyrrolo[2,1-c][1,4]benzodiazepine-3-carboxamide] was tested, and the inhibition at 0.1 µM was 16%.
For `COc1cc(C(=O)N2Cc3ccc(C(=O)NCCCn4ccnc4)n3Cc3ccccc32)ccc1-c1ccccc1C` [Example 128, N-[3-(1H-Imidazol-1-yl)propyl]-10-[(2-methoxy-2′-methyl[1,1′-biphenyl]-4-yl)carbonyl]-10,11-dihydro-5H-pyrrolo[2,1-c][1,4]benzodiazepine-3-carboxamide], the inhibition at 0.1 µM was 18%.
`COc1cc(-c2ccccc2C)c(Cl)cc1C(=O)N1Cc2ccc(C(=O)NCCCn3ccnc3)n2Cc2ccccc21` [Example 129, 10-[(6-Chloro-3-methoxy-2′-methyl[1,1′-biphenyl]-4-yl)carbonyl]-N-[3-(1H-imidazol-1-yl)propyl]-10,11-dihydro-5H-pyrrolo[2,1-c][1,4]benzodiazepine-3-carboxamide] gave an inhibition at 0.1 µM of 6%.
Compound `COc1cccc(-c2cc(OC)c(C(=O)N3Cc4ccc(C(=O)NCCCn5ccnc5)n4Cc4ccccc43)cc2Cl)c1` [Example 130, 10-[(6-Chloro-3,3′-dimethoxy[1,1′-biphenyl]-4-yl)carbonyl]-N-[3-(1H-imidazol-1-yl)propyl]-10,11-dihydro-5H-pyrrolo[2,1-c][1,4]benzodiazepine-3-carboxamide] has an inhibition at 0.1 µM of 4%.
Work on `COc1cc(C(=O)N2Cc3ccc(C(=O)NCCCn4ccnc4)n3Cc3ccccc32)ccc1-c1cccc2ccccc12` [Example 131, N-[3-(1H-Imidazol-1-yl)propyl]-10-[3-methoxy-4-(1-naphthyl)benzoyl]-10,11-dihydro-5H-pyrrolo[2,1-c][1,4]benzodiazepine-3-carboxamide] yielded an inhibition at 0.1 µM of 8%.
For `COc1ccccc1-c1ccc(C(=O)N2Cc3ccc(C(=O)NCCCn4ccnc4)n3Cc3ccccc32)cc1OC` [Example 132, 10-[(2,2′-Dimethoxy[1,1′-biphenyl]-4-yl)carbonyl]-N-[3-(1H-imidazol-1-yl)propyl]-10,11-dihydro-5H-pyrrolo[2,1-c][1,4]benzodiazepine-3-carboxamide], the inhibition at 0.1 µM was 2%.
`COc1cccc(-c2ccc(C(=O)N3Cc4ccc(C(=O)NCCCn5ccnc5)n4Cc4ccccc43)cc2OC)c1` [Example 133, 10-[(2,3′-Dimethoxy[1,1′-biphenyl]4-yl)carbonyl]-N-[3-(1H-imidazol-1-yl)propyl]-10,11-dihydro-5H-pyrrolo[2,1-c][1,4]benzodiazepine-3-carboxamide] was tested, and the inhibition at 0.1 µM was 20%.
With `O=C(NCCCn1ccnc1)c1ccc2n1Cc1ccccc1N(C(=O)c1ccc(-c3cccc4ccccc34)cc1Cl)C2` [Example 134, 10-[2-Chloro-4-(1-naphthyl)benzoyl]-N-[3-(1H-imidazol-1-yl)propyl]-10,11-dihydro-5H-pyrrolo[2,1-c][1,4]benzodiazepine-3-carboxamide] the inhibition at 0.1 µM was 5%.
Compound `Cc1cc(C(=O)N2Cc3ccc(C(=O)NCCCn4ccnc4)n3Cc3ccccc32)ccc1-c1ccccc1C(F)(F)F` [Example 135, N-[3-(1H-Imidazol-1-yl)propyl]-10-{[2-methyl-2′-(trifluoromethyl)[1,1′-biphenyl]-4-yl]carbonyl}-10,11-dihydro-5H-pyrrolo[2,1-c][1,4]benzodiazepine-3-carboxamide] has an inhibition at 0.1 µM of 2%.
For `COc1ccccc1-c1ccc(C(=O)N2Cc3ccc(C(=O)N4CCC(N5CCCC5)CC4)n3Cc3ccccc32)cc1C` [Example 137, {10-[(2′-Methoxy-2-methyl[1,1′-biphenyl]-4-yl)carbonyl]-10,11-dihydro-5H-pyrrolo[2,1-c][1,4]benzodiazepin-3-yl}[4-(1-pyrrolidinyl)-1-piperidinyl]methanone], the inhibition at 0.1 µM was 4%.
Compound `Cc1ccccc1-c1ccc(C(=O)N2Cc3ccc(C(=O)N4CCC(N5CCCC5)CC4)n3Cc3ccccc32)cc1C` [Example 138, {10-[(2,2′-Dimethyl[1,1′-biphenyl]-4-yl)carbonyl]-10,11-dihydro-5H-pyrrolo[2,1-c][1,4]benzodiazepin-3-yl}[4-(1-pyrrolidinyl)-1-piperidinyl]methanone] has an inhibition at 0.1 µM of 47%.
`COc1cccc(-c2ccc(C(=O)N3Cc4ccc(C(=O)N5CCC(N6CCCC6)CC5)n4Cc4ccccc43)cc2C)c1` [Example 139, {10-[(3′-Methoxy-2-methyl[1,1′-biphenyl]-4-yl)carbonyl]-10,11-dihydro-5H-pyrrolo[2,1-c][1,4]benzodiazepin-3-yl}[4-(1-pyrrolidinyl)-1-piperidinyl]methanone] was tested, and the inhibition at 0.1 µM was 9%.
In the case of `COc1ccccc1-c1ccc(C(=O)N2Cc3ccc(C(=O)N4CCC(N5CCCC5)CC4)n3Cc3ccccc32)cc1` [Example 140, {10-[(2′-Methoxy[1,1′-biphenyl]-4-yl)carbonyl]-10,11-dihydro-5H-pyrrolo[2,1-c][1,4]benzodiazepin-3-yl}[4-(1-pyrrolidinyl)-1-piperidinyl]methanone], the inhibition at 0.1 µM was 24%.
